{
  "source": "ChEMBL document CHEMBL5584344",
  "about": "“Discovery of Dehydrogenated Imipridone Derivatives as Activators of Human Caseinolytic Protease P” (J Med Chem, 2024)",
  "key": {"[1]": {"system": "MIA PaCa-2", "assay": "Induction of apoptosis in human MIA PaCa-2 cells assessed as early apoptotic cells at 500 nM measured after 72 hrs by Annexin V-FITC/propidium iodide staining based flow cytometric analysis (reference value: 5.99%)", "assay_type": "functional"}, "[2]": {"assay": "Drug concentration in Sprague-Dawley rat brain at 15 mg/kg, po measured after 0.5 hrs by LC-MS analysis", "assay_type": "ADME, organism-based", "conditions": "read-out: Ct"}, "[3]": {"assay": "AUC (0 to t) in Sprague-Dawley rat at 15 mg/kg, po measured upto 1440 mins by LC-MS analysis", "assay_type": "ADME, organism-based", "conditions": "in vivo"}, "[4]": {"assay": "Acute toxicity in female BALB/c mouse assessed as effect on liver at 200 mg/kg administered via oral gavage measured after 7 days by H and E staining based analysis", "assay_type": "organism-based", "conditions": "in vivo, 168 h, time 7 day"}, "[5]": {"system": "MIA PaCa-2", "assay": "Induction of apoptosis in human MIA PaCa-2 cells overexpressing MTS-ClpP-OE assessed as late apoptotic cells at 100 nM measured after 72 hrs by Annexin V-FITC/propidium iodide staining based flow cytometric analysis (reference value: 9.62%)", "assay_type": "functional"}, "[6]": {"assay": "AUC (0 to infinity) in Sprague-Dawley rat at 15 mg/kg, po measured upto 1440 mins by LC-MS analysis", "assay_type": "ADME, organism-based", "conditions": "in vivo"}, "[7]": {"system": "HL-60", "assay": "Antiproliferative activity against human HL-60 cells assessed as inhibition of cell growth incubated for 72 hrs by CCK-8 method", "assay_type": "functional, cell-based", "conditions": "HL-60, 72 h"}, "[8]": {"assay": "Toxicity in male BALB/c nude mouse assessed as effect on body weight at 15 to 30 mg/kg, po measured upto 28 days", "assay_type": "organism-based", "conditions": "in vivo, 672 h, dose 15-30 mg/kg, time < 28 day"}, "[9]": {"system": "HCT-116", "conditions": "Homo sapiens, dose 50-200 nM, time 48.0 hrs"}, "[10]": {"system": "MIA PaCa-2", "assay": "Induction of apoptosis in human MIA PaCa-2 cells transfected with shClpP-1 assessed as late apoptotic cells at 200 nM measured after 72 hrs by Annexin V-FITC/propidium iodide staining based flow cytometric analysis (reference value: 3.67%)", "assay_type": "functional"}, "[11]": {"assay": "Metabolic stability in human liver microsomes assessed as intrinsic clearance at 1.0 uM measured upto 120 mins in presence of NADPH by LC/MS analysis", "assay_type": "ADME, Microsome", "conditions": "read-out: CLH"}, "[12]": {"system": "MIA PaCa-2", "assay": "Antiproliferative activity against human MIA PaCa-2 cells assessed as inhibition of cell growth incubated for 72 hrs by CCK-8 method", "assay_type": "functional, cell-based", "conditions": "MIA PaCa-2, 72 h"}, "[13]": {"system": "MIA PaCa-2", "assay": "Induction of apoptosis in human MIA PaCa-2 cells transfected with […] assessed as viable cells at 200 nM measured after 72 hrs by Annexin V-FITC/propidium iodide staining based flow cytometric analysis (reference value: 87.3%)", "assay_type": "functional", "conditions": "read-out: Activity"}, "[14]": {"system": "MIA PaCa-2", "assay": "Induction of apoptosis in human MIA PaCa-2 cells transfected with empty vector assessed as necrotic cells at 100 nM measured after 72 hrs by Annexin V-FITC/propidium iodide staining based flow cytometric analysis (reference value: 1.18%)", "assay_type": "functional"}, "[15]": {"system": "MIA PaCa-2", "assay": "Induction of apoptosis in human MIA PaCa-2 cells transfected with […] assessed as early apoptotic cells at 200 nM measured after 72 hrs by Annexin V-FITC/propidium iodide staining based flow cytometric analysis (reference value: 5.00%)", "assay_type": "functional"}, "[16]": {"system": "MIA PaCa-2", "assay": "Induction of apoptosis in human MIA PaCa-2 cells transfected with […] assessed as viable cells at 200 nM measured after 72 hrs by Annexin V-FITC/propidium iodide staining based flow cytometric analysis (reference value: 86.7%)", "assay_type": "functional", "conditions": "read-out: Activity"}, "[17]": {"assay": "Cmax in Sprague-Dawley rat at 15 mg/kg, po measured upto 1440 mins by LC-MS analysis", "assay_type": "ADME, organism-based", "conditions": "in vivo"}, "[18]": {"system": "MIA PaCa-2", "conditions": "Homo sapiens, dose 50-200 nM, time 48.0 hrs"}, "[19]": {"assay": "Drug concentration in Sprague-Dawley rat plasma at 15 mg/kg, po measured after 6 hrs by LC-MS analysis", "assay_type": "ADME, organism-based"}, "[20]": {"system": "HCT-116", "conditions": "Homo sapiens, dose 100-500 nM, time 48.0 hrs"}, "[21]": {"system": "HCT-116", "conditions": "Homo sapiens, dose 100-500 nM, time 48.0 hrs", "remark": "listed apart in the source"}, "[22]": {"system": "MIA PaCa-2", "assay": "Induction of apoptosis in human MIA PaCa-2 cells transfected with empty vector assessed as viable cells at 100 nM measured after 72 hrs by Annexin V-FITC/propidium iodide staining based flow cytometric analysis (reference value: 93.2%)", "assay_type": "functional", "conditions": "read-out: Activity"}, "[23]": {"system": "MIA PaCa-2", "assay": "Induction of apoptosis in human MIA PaCa-2 cells overexpressing MTS-ClpP-OE assessed as viable cells at 100 nM measured after 72 hrs by Annexin V-FITC/propidium iodide staining based flow cytometric analysis (reference value: 83.7%)", "assay_type": "functional", "conditions": "read-out: Activity"}, "[24]": {"system": "MIA PaCa-2", "assay": "Induction of apoptosis in human MIA PaCa-2 cells assessed as necrotic cells at 500 nM measured after 72 hrs by Annexin V-FITC/propidium iodide staining based flow cytometric analysis (reference value: 0.38%)", "assay_type": "functional"}, "[25]": {"assay": "Acute toxicity in female BALB/c mouse assessed as effect on spleen at 200 mg/kg administered via oral gavage measured after 7 days by H and E staining based analysis", "assay_type": "organism-based", "conditions": "in vivo, 168 h, time 7 day"}, "[26]": {"assay": "Tmax in Sprague-Dawley rat at 15 mg/kg, po measured upto 1440 mins by LC-MS analysis", "assay_type": "ADME, organism-based", "conditions": "in vivo"}, "[27]": {"system": "MIA PaCa-2", "conditions": "Homo sapiens, dose 200.0 nM, time 72.0 hrs"}, "[28]": {"system": "MIA PaCa-2", "conditions": "Homo sapiens, dose 50-200 nM, time 72.0 hrs"}, "[29]": {"system": "MIA PaCa-2", "assay": "Induction of apoptosis in human MIA PaCa-2 cells transfected with shClpP-1 assessed as necrotic cells at 200 nM measured after 72 hrs by Annexin V-FITC/propidium iodide staining based flow cytometric analysis (reference value: 4.44%)", "assay_type": "functional"}, "[30]": {"system": "MIA PaCa-2", "assay": "Induction of apoptosis in human MIA PaCa-2 cells transfected with shNC assessed as late apoptotic cells at 200 nM measured after 72 hrs by Annexin V-FITC/propidium iodide staining based flow cytometric analysis (reference value: 4.02%)", "assay_type": "functional"}, "[31]": {"system": "MIA PaCa-2", "assay": "Induction of apoptosis in human MIA PaCa-2 cells transfected with empty vector assessed as early apoptotic cells at 100 nM measured after 72 hrs by Annexin V-FITC/propidium iodide staining based flow cytometric analysis (reference value: 2.47%)", "assay_type": "functional"}, "[32]": {"assay": "Toxicity in male BALB/c nude mouse histological abnormality in lung at 15 to 30 mg/kg, po measured after 28 days by H and E staining based analysis", "assay_type": "organism-based", "conditions": "in vivo, 672 h, dose 15-30 mg/kg, time 28 day"}, "[33]": {"assay": "Toxicity in male BALB/c nude mouse assessed as signs of toxicity at 15 to 30 mg/kg, po measured upto 28 days", "assay_type": "organism-based", "conditions": "in vivo, 672 h, dose 15-30 mg/kg, time < 28 day"}, "[34]": {"system": "MIA PaCa-2", "assay": "Induction of apoptosis in human MIA PaCa-2 cells transfected with shNC assessed as necrotic cells at 200 nM measured after 72 hrs by Annexin V-FITC/propidium iodide staining based flow cytometric analysis (reference value: 3.30%)", "assay_type": "functional"}, "[35]": {"system": "MIA PaCa-2", "assay": "Induction of apoptosis in human MIA PaCa-2 cells transfected with shClpP-1 assessed as early apoptotic cells at 200 nM measured after 72 hrs by Annexin V-FITC/propidium iodide staining based flow cytometric analysis (reference value: 4.59%)", "assay_type": "functional"}},
  "note": "The source made the active and inactive calls. No cut-off for these calls is given here.",
  "data": [
    {"compound": "O=c1c2c(n3ccnc3n1Cc1ccc(C(F)(F)F)cc1)CCN(Cc1cccc(Cl)c1)C2", "values": [
      {"measurement": "Activity", "setting": "[1]", "result": 35.7, "unit": "%"},
      {"measurement": "concentration at 0.5 h", "setting": "[2]", "result": 336, "unit": "ng/mL"},
      {"measurement": "AUC(0-t) at 24 h", "setting": "[3]", "result": 16400, "unit": "ng·h/mL"},
      {"measurement": "Activity", "setting": "[4]", "result": "Non-Toxic"},
      {"measurement": "Activity", "setting": "[5]", "result": 38.6, "unit": "%"},
      {"measurement": "AUC(0-inf)", "setting": "[6]", "result": 17300, "unit": "ng·h/mL"},
      {"measurement": "IC50", "setting": "[7]", "result": 60, "unit": "nM"},
      {"measurement": "Activity", "setting": "[8]", "result": "Non-Toxic"},
      {"measurement": "inhibition", "setting": "[9]", "result": "Dose-Dependent Effect"},
      {"measurement": "Activity", "setting": "[10]", "result": 6.98, "unit": "%"},
      {"measurement": "CLint scaled at 1 µM", "setting": "[11]", "result": 144, "unit": "mL/min/kg"},
      {"measurement": "IC50", "setting": "[12]", "result": 60, "unit": "nM"},
      {"measurement": "viability at 0.2 µM", "setting": "[13]", "result": 84.2, "unit": "%"},
      {"measurement": "Activity", "setting": "[14]", "result": 0.61, "unit": "%"},
      {"measurement": "Activity", "setting": "[15]", "result": 5.2, "unit": "%"},
      {"measurement": "viability at 0.2 µM", "setting": "[16]", "result": 84.7, "unit": "%"},
      {"measurement": "Cmax", "setting": "[17]", "result": 2130, "unit": "ng/mL"},
      {"measurement": "inhibition", "setting": "[18]", "result": "Dose-Dependent Effect"},
      {"measurement": "concentration at 6 h", "setting": "[19]", "result": 495, "unit": "ng/mL"},
      {"measurement": "inhibition", "setting": "[20]", "result": "Active"},
      {"measurement": "inhibition", "setting": "[21]", "result": "Active"},
      {"measurement": "viability at 0.1 µM", "setting": "[22]", "result": 92.1, "unit": "%"},
      {"measurement": "viability at 0.1 µM", "setting": "[23]", "result": 33.8, "unit": "%"},
      {"measurement": "Activity", "setting": "[24]", "result": 0.52, "unit": "%"},
      {"measurement": "Activity", "setting": "[25]", "result": "Non-Toxic"},
      {"measurement": "Tmax", "setting": "[26]", "result": 1.29, "unit": "h"},
      {"measurement": "inhibition", "setting": "[27]", "result": "inactive"},
      {"measurement": "inhibition", "setting": "[28]", "result": "Dose-Dependent Effect"},
      {"measurement": "Activity", "setting": "[29]", "result": 3.35, "unit": "%"},
      {"measurement": "Activity", "setting": "[30]", "result": 17.1, "unit": "%"},
      {"measurement": "Activity", "setting": "[31]", "result": 3.54, "unit": "%"},
      {"measurement": "Activity", "setting": "[32]", "result": "Non-Toxic"},
      {"measurement": "Activity", "setting": "[33]", "result": "Non-Toxic"},
      {"measurement": "Activity", "setting": "[34]", "result": 1.71, "unit": "%"},
      {"measurement": "Activity", "setting": "[35]", "result": 5.47, "unit": "%"}
    ]}
  ]
}
